The results in this text go back to ChEMBL document CHEMBL1128889, “Preparation and biological evaluation of -Trifluoromethyl-,-unsaturated carbonyl compounds” (Bioorg Med Chem Lett, 1995).

A short description of this experiment: In vitro viable cell inhibitory towards interleukin-2 antiproducing effect was determined. The experiment is classed as functional.

Converted amounts (≈) assume the structure as drawn.

`CC1(C)COC(=O)[C@@H]1OC(=O)/C=C/C(F)(F)F` showed an IC50 of 3.71 µg/mL (≈ 14.7 µM). As to `CC1(C)OC[C@H]([C@H](OC(=O)/C=C/C(F)(F)F)[C@@H](OC(=O)/C=C/C(F)(F)F)[C@H]2COC(C)(C)O2)O1`, half-maximal inhibition (IC50) required 0.8 µg/mL (≈ 1.58 µM).
